In patent publication US12281149B2, “Modulators of G-protein coupled receptors” (priority 2021, dated 2025):
Where two headings read alike, the source gives them in different places. *1 amine or outer side, *2 acyl side, *3 side chain or, on linkers, in order; H or OH if unused. Where a SMILES comes first, the peptide text is derived from it. Side-chain parts run from the residue outwards. [ ]: non-standard residue; d: D form. The star is where a group is joined. Isobutyryl(2-(3-CN-5-F-Ph)) = CC(C)(C(=O)*)c1cc(F)cc(C#N)c1; C20 diacid = O=C(O)CCCCCCCCCCCCCCCCCCC(=O)*; αMePhe(2-F) = C[C@](N)(Cc1ccccc1F)C(=O)O; γGlu = O=C(O)[C@H](CCC(=O)[*:2])N[*:1]; X60 = O=C(C1(c2cccnc2)CCCC1)*; X83 = Cc1ccn(C(C)(C)C(=O)*)n1; AEEA = NCCOCCOCC(=O)O; Aib = CC(C)(N)C(=O)O; CO = O=C([*:1])[*:2]; X12 = Fc1cccc(N*)c1; X67 = Cc1cccc(N*)c1; GABA = NCCCC(=O)O; βAla = NCCC(=O)O

Tests used:
GIP receptor = target: T1, GIP receptor (Homo sapiens, UniProt P48546); test: HitHunter cAMP assay, GIP receptor; format: cell-based; conditions: read-out: Emax GIP-1R
T1 sequence (P48546 22-466): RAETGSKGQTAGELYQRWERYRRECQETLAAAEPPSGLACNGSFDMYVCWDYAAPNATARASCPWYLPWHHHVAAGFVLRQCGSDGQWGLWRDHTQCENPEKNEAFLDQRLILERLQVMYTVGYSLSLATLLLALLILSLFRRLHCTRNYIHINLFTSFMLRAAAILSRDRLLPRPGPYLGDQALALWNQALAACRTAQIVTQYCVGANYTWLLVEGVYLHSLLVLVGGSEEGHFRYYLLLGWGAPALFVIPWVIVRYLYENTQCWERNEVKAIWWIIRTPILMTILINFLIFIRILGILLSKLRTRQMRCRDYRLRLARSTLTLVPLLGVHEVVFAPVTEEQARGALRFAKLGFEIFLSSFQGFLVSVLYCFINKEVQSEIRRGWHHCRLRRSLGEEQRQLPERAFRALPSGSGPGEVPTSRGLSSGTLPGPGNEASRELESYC

GLP-1 receptor = GLP-1 receptor (Homo sapiens, UniProt P43220); test: HitHunter cAMP assay, GLP-1 receptor; format: cell-based; conditions: read-out: Emax GLP-1R
Chain of GLP-1 receptor (P43220 24-463): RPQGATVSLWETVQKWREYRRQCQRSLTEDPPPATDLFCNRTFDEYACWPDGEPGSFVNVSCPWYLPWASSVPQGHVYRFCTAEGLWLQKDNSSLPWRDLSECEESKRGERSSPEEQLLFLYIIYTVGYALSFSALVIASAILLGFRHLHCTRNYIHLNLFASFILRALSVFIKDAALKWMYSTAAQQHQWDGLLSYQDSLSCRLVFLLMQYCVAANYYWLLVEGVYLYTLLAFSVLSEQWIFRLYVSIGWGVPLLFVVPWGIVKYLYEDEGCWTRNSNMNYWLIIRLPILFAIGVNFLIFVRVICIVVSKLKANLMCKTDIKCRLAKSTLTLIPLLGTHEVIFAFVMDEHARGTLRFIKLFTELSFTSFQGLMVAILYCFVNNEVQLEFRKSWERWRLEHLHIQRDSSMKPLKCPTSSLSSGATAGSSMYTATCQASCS

[1] = CHO cells, cAMP, normalized to maximum signal from GIP (high) and DMSO (low)
[2] = CHO cells, cAMP, normalized to maximum signal from GLP-1 (high) and DMSO (low)

SMILES	Emax (GIP receptor; [1])	Emax (GLP-1 receptor; [2])	Emax (GIP receptor; CHO)	Emax (GLP-1 receptor; CHO)
CC[C@H](C)[C@H](NC(=O)[C@H](CC(C)C)NC(=O)[C@H](Cc1c[nH]c2ccccc12)NC(=O)[C@H](CCC(N)=O)NC(=O)[C@@H](NC(=O)[C@H](Cc1ccccc1)NC(=O)[C@H](C)NC(=O)[C@H](CCCCNC(=O)COCCOCCNC(=O)COCCOCCNC(=O)CC[C@H](NC(=O)CCCCCCCCCCCCCCCCCCC(=O)O)C(=O)O)NC(=O)[C@H](CCC(N)=O)NC(=O)[C@H](C)NC(=O)[C@@H](NC(=O)[C@H](CCCCN)NC(=O)[C@H](CC(=O)O)NC(=O)[C@H](CC(C)C)NC(=O)C(C)(C)NC(=O)[C@@H](NC(=O)[C@H](CO)NC(=O)[C@H](Cc1ccc(O)cc1)NC(=O)[C@H](CC(=O)O)NC(=O)[C@H](CO)NC(=O)[C@@H](NC(=O)[C@H](Cc1ccccc1)NC(=O)[C@@H](NC(=O)CNC(=O)[C@H](CCC(=O)O)NC(=O)CCNC(=O)C(C)(C)c1cc(F)cc(C#N)c1)[C@@H](C)O)[C@@H](C)O)[C@@H](C)CC)[C@@H](C)CC)C(C)C)C(=O)N[C@@H](C)C(=O)NCC(=O)NCC(=O)N1CCC[C@H]1C(=O)N[C@@H](CO)C(=O)N[C@@H](CO)C(=O)NCC(=O)N[C@@H](C)C(=O)N1CCC[C@H]1C(=O)N1CCC[C@H]1C(=O)N1CCC[C@H]1C(=O)N[C@@H](CO)C(N)=O [Compound 254] ({Isobutyryl(2-(3-CN-5-F-Ph))-βAla}-EGTFTSDYSI[Aib]LDKIAQK([AEEA-AEEA-γGlu-C20 diacid])AFVQWLIAGGPSSGAPPPS-NH2; C-terminus assumed)	102%	93%	–	–
CC[C@H](C)[C@H](NC(=O)[C@H](CC(C)C)NC(=O)[C@H](Cc1c[nH]c2ccccc12)NC(=O)[C@H](CCC(N)=O)NC(=O)[C@@H](NC(=O)[C@H](Cc1ccccc1)NC(=O)[C@H](C)NC(=O)[C@H](CCCCNC(=O)COCCOCCNC(=O)COCCOCCNC(=O)CC[C@H](NC(=O)CCCCCCCCCCCCCCCCCCC(=O)O)C(=O)O)NC(=O)[C@H](CCC(N)=O)NC(=O)[C@H](C)NC(=O)[C@@H](NC(=O)[C@H](CCCCN)NC(=O)[C@H](CC(=O)O)NC(=O)[C@H](CC(C)C)NC(=O)C(C)(C)NC(=O)[C@@H](NC(=O)[C@H](CO)NC(=O)[C@H](Cc1ccc(O)cc1)NC(=O)[C@H](CC(=O)O)NC(=O)[C@H](CO)NC(=O)[C@@H](NC(=O)[C@](C)(Cc1ccccc1F)NC(=O)[C@@H](NC(=O)CNC(=O)[C@H](CCC(=O)O)NC(=O)CCNC(=O)C1(c2cccnc2)CCCC1)[C@@H](C)O)[C@@H](C)O)[C@@H](C)CC)[C@@H](C)CC)C(C)C)C(=O)N[C@@H](C)C(=O)NCC(N)=O [Compound 226] ({X60-βAla}-EGT[αMePhe(2-F)]TSDYSI[Aib]LDKIAQK([AEEA-AEEA-γGlu-C20 diacid])AFVQWLIAG-NH2; N-terminus and C-terminus assumed)	102%	104%	–	–
CC[C@H](C)[C@H](NC(=O)[C@H](CC(C)C)NC(=O)[C@H](Cc1c[nH]c2ccccc12)NC(=O)[C@H](CCC(N)=O)NC(=O)[C@@H](NC(=O)[C@H](Cc1ccccc1)NC(=O)[C@H](C)NC(=O)[C@H](CCCCNC(=O)COCCOCCNC(=O)COCCOCCNC(=O)CC[C@H](NC(=O)CCCCCCCCCCCCCCCCCCC(=O)O)C(=O)O)NC(=O)[C@H](CCC(N)=O)NC(=O)[C@H](C)NC(=O)[C@@H](NC(=O)[C@H](CCCCN)NC(=O)[C@H](CC(=O)O)NC(=O)[C@H](CC(C)C)NC(=O)C(C)(C)NC(=O)[C@@H](NC(=O)[C@H](CO)NC(=O)[C@H](Cc1ccc(O)cc1)NC(=O)[C@H](CC(=O)O)NC(=O)[C@H](CO)NC(=O)[C@@H](NC(=O)[C@H](Cc1ccccc1)NC(=O)[C@@H](NC(=O)CNC(=O)[C@H](CCC(=O)O)NC(=O)CCCNC(=O)C(C)(C)n1ccc(C)n1)[C@@H](C)O)[C@@H](C)O)[C@@H](C)CC)[C@@H](C)CC)C(C)C)C(=O)N[C@@H](C)C(=O)NCC(=O)NCC(=O)N1CCC[C@H]1C(=O)N[C@@H](CO)C(=O)N[C@@H](CO)C(=O)NCC(=O)N[C@@H](C)C(=O)N1CCC[C@H]1C(=O)N1CCC[C@H]1C(=O)N1CCC[C@H]1C(=O)N[C@@H](CO)C(N)=O [Compound 252] ({X83-GABA}-EGTFTSDYSI[Aib]LDKIAQK([AEEA-AEEA-γGlu-C20 diacid])AFVQWLIAGGPSSGAPPPS-NH2; C-terminus assumed)	100%	90%	–	–
CC[C@H](C)[C@H](NC(=O)[C@H](CC(C)C)NC(=O)[C@H](Cc1c[nH]c2ccccc12)NC(=O)[C@H](CCC(N)=O)NC(=O)[C@@H](NC(=O)[C@H](Cc1ccccc1)NC(=O)[C@H](C)NC(=O)[C@H](CCCCNC(=O)COCCOCCNC(=O)COCCOCCNC(=O)CC[C@H](NC(=O)CCCCCCCCCCCCCCCCCCC(=O)O)C(=O)O)NC(=O)[C@H](CCC(N)=O)NC(=O)[C@H](C)NC(=O)[C@@H](NC(=O)[C@H](CCCCN)NC(=O)[C@H](CC(=O)O)NC(=O)[C@H](CC(C)C)NC(=O)C(C)(C)NC(=O)[C@@H](NC(=O)[C@H](CO)NC(=O)[C@H](Cc1ccc(O)cc1)NC(=O)[C@H](CC(=O)O)NC(=O)[C@H](CO)NC(=O)[C@@H](NC(=O)[C@H](Cc1ccccc1)NC(=O)[C@@H](NC(=O)CNC(=O)[C@H](CCC(=O)O)NC(=O)CCCNC(=O)CNC(=O)Nc1cccc(C)c1)[C@@H](C)O)[C@@H](C)O)[C@@H](C)CC)[C@@H](C)CC)C(C)C)C(=O)N[C@@H](C)C(=O)NCC(=O)NCC(=O)N1CCC[C@H]1C(=O)N[C@@H](CO)C(=O)N[C@@H](CO)C(=O)NCC(=O)N[C@@H](C)C(=O)N1CCC[C@H]1C(=O)N1CCC[C@H]1C(=O)N1CCC[C@H]1C(=O)N[C@@H](CO)C(N)=O [Compound 258] ({X67-CO}-G[GABA]EGTFTSDYSI[Aib]LDKIAQK([AEEA-AEEA-γGlu-C20 diacid])AFVQWLIAGGPSSGAPPPS-NH2; C-terminus assumed)	–	–	101%	100%
CC[C@H](C)[C@H](NC(=O)[C@H](CC(C)C)NC(=O)[C@H](Cc1c[nH]c2ccccc12)NC(=O)[C@H](CCC(N)=O)NC(=O)[C@@H](NC(=O)[C@H](Cc1ccccc1)NC(=O)[C@H](C)NC(=O)[C@H](CCCCNC(=O)COCCOCCNC(=O)COCCOCCNC(=O)CC[C@H](NC(=O)CCCCCCCCCCCCCCCCCCC(=O)O)C(=O)O)NC(=O)[C@H](CCC(N)=O)NC(=O)[C@H](C)NC(=O)[C@@H](NC(=O)[C@H](CCCCN)NC(=O)[C@H](CC(=O)O)NC(=O)[C@H](CC(C)C)NC(=O)C(C)(C)NC(=O)[C@@H](NC(=O)[C@H](CO)NC(=O)[C@H](Cc1ccc(O)cc1)NC(=O)[C@H](CC(=O)O)NC(=O)[C@H](CO)NC(=O)[C@@H](NC(=O)[C@H](Cc1ccccc1)NC(=O)[C@@H](NC(=O)CNC(=O)[C@H](CCC(=O)O)NC(=O)CCNC(=O)C1(c2cccnc2)CCCC1)[C@@H](C)O)[C@@H](C)O)[C@@H](C)CC)[C@@H](C)CC)C(C)C)C(=O)N[C@@H](C)C(=O)NCC(=O)NCC(=O)N1CCC[C@H]1C(=O)N[C@@H](CO)C(=O)N[C@@H](CO)C(=O)NCC(=O)N[C@@H](C)C(=O)N1CCC[C@H]1C(=O)N1CCC[C@H]1C(=O)N1CCC[C@H]1C(=O)N[C@@H](CO)C(N)=O [Compound 256] ({X60-βAla}-EGTFTSDYSI[Aib]LDKIAQK([AEEA-AEEA-γGlu-C20 diacid])AFVQWLIAGGPSSGAPPPS-NH2; C-terminus assumed)	104%	98%	–	–
CC[C@H](C)[C@H](NC(=O)[C@H](CC(C)C)NC(=O)[C@H](Cc1c[nH]c2ccccc12)NC(=O)[C@H](CCC(N)=O)NC(=O)[C@@H](NC(=O)[C@H](Cc1ccccc1)NC(=O)[C@H](C)NC(=O)[C@H](CCCCNC(=O)COCCOCCNC(=O)COCCOCCNC(=O)CC[C@H](NC(=O)CCCCCCCCCCCCCCCCCCC(=O)O)C(=O)O)NC(=O)[C@H](CCC(N)=O)NC(=O)[C@H](C)NC(=O)[C@@H](NC(=O)[C@H](CCCCN)NC(=O)[C@H](CC(=O)O)NC(=O)[C@H](CC(C)C)NC(=O)C(C)(C)NC(=O)[C@@H](NC(=O)[C@H](CO)NC(=O)[C@H](Cc1ccc(O)cc1)NC(=O)[C@H](CC(=O)O)NC(=O)[C@H](CO)NC(=O)[C@@H](NC(=O)[C@H](Cc1ccccc1)NC(=O)[C@@H](NC(=O)CNC(=O)[C@H](CCC(=O)O)NC(=O)CCCNC(=O)CNC(=O)Nc1cccc(F)c1)[C@@H](C)O)[C@@H](C)O)[C@@H](C)CC)[C@@H](C)CC)C(C)C)C(=O)N[C@@H](C)C(=O)NCC(=O)NCC(=O)N1CCC[C@H]1C(=O)N[C@@H](CO)C(=O)N[C@@H](CO)C(=O)NCC(=O)N[C@@H](C)C(=O)N1CCC[C@H]1C(=O)N1CCC[C@H]1C(=O)N1CCC[C@H]1C(=O)N[C@@H](CO)C(N)=O [Compound 260] ({X12-CO}-G[GABA]EGTFTSDYSI[Aib]LDKIAQK([AEEA-AEEA-γGlu-C20 diacid])AFVQWLIAGGPSSGAPPPS-NH2; C-terminus assumed)	107%	124%	–	–
